molecular target: T1, human PTHR1 receptor (Homo sapiens, UniProt Q03431); assay: Competitive antagonist binding assay for hPTH-R1 (radioactive competition binding, SPA beads); conditions: human PTHR1 membranes, [125I]-[Nle8,18,Tyr34]-PTH(1-34) 0.2 nM, 90 minutes at room temperature; read-out: hPTHR1 Ki
T1 construct: purchased Eurofins HTS030M
T1 sequence (Q03431 27-593): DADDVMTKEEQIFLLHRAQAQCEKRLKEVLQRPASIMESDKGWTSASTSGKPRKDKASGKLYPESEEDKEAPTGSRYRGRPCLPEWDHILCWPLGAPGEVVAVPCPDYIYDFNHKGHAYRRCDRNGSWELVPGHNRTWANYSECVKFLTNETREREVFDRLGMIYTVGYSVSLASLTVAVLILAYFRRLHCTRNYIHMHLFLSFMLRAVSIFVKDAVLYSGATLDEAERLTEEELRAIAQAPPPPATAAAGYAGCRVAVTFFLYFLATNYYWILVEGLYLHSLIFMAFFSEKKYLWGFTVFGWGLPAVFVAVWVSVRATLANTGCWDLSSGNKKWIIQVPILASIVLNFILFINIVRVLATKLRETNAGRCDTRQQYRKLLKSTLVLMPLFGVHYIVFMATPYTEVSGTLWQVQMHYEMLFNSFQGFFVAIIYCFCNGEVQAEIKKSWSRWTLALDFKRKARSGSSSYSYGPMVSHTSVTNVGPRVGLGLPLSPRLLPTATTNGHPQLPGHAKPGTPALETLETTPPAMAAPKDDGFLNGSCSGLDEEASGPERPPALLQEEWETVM
Outline: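 Human PTHR1 membranes on SPA beads incubated 90 min at room temperature with compound (typically 0-10,000 nM final) and 0.2 nM [125I]-[Nle8,18,Tyr34]-PTH(1-34) in HEPES buffer with MgCl2, CaCl2, BSA, Triton X-100 and protease inhibitors, pH 7.4. Scintillation signal read; Ki values derived.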

| Ki [µM] | SMILES |
| --- | --- |
| < 0.1 | CCN1C(=O)N(c2c(F)cc(NCCNC)cc2F)c2cc(Cl)ccc2-c2cc(C3CC3)cnc21 [1-24, 13-chloro-4-cyclopropyl-10-(2,6-difluoro-4-{[2-(methylamino)ethyl]amino}phenyl)-8-ethyl-6,8,10-triazatricyclo[9.4.0.0^2,7]pentadeca-1(11),2(7),3,5,12,14-hexaen-9-one] |
| < 0.1 | CNCCNc1cc(F)c(N2C(=O)N(C(C)C)c3ncc(F)cc3-c3ccc(Cl)cc32)c(F)c1 [1-105, 13-chloro-10-(2,6-difluoro-4-{[2-(methylamino)ethyl]amino}phenyl)-4-fluoro-8-(propan-2-yl)-6,8,10-triazatricyclo[9.4.0.0^2,7]pentadeca-1(11),2(7),3,5,12,14-hexaen-9-one] |
| 0.1 to 1 | CNCCNc1ccc(N2C(=O)N(C)c3ncccc3-c3ccc(Cl)cc32)cc1 [2-1, 13-chloro-8-methyl-10-(4-{[2-(methylamino)ethyl]amino}phenyl)-6,8,10-triazatricyclo[9.4.0.0^2,7]pentadeca-1(11),2(7),3,5,12,14-hexaen-9-one] |
| < 0.1 | CCN1C(=O)N(c2c(F)cc(NCCN)cc2F)c2cc(Cl)ccc2-c2cc(F)cnc21 [1-15, 10-{4-[(2-aminoethyl)amino]-2,6-difluorophenyl}-13-chloro-8-ethyl-4-fluoro-6,8,10-triazatricyclo[9.4.0.0^2,7]pentadeca-1(11),2(7),3,5,12,14-hexaen-9-one] |
| < 0.1 | CCN1C(=O)N(c2c(F)cc(NCCNCCC(=O)O)cc2F)c2cc(C#N)ccc2-c2cc(Cl)cnc21 [1-178, 3-({2-[(4-{4-chloro-13-cyano-8-ethyl-9-oxo-6,8,10-triazatricyclo[9.4.0.0^2,7]pentadeca-1(11),2(7),3,5,12,14-hexaen-10-yl}-3,5-difluorophenyl)amino]ethyl}amino)propanoic acid] |
| 0.1 to 1 | CNCCNc1cc(F)c(N2C(=O)N(CCO)c3ncc(F)cc3-c3ccc(C#N)cc32)c(F)c1 [1-121, 10-(2,6-difluoro-4-{[2-(methylamino)ethyl]amino}phenyl)-4-fluoro-8-(2-hydroxyethyl)-9-oxo-6,8,10-triazatricyclo[9.4.0.0^2,7]pentadeca-1(11),2(7),3,5,12,14-hexaene-13-carbonitrile] |
| < 0.1 | CCN1C(=O)N(c2c(F)cc(NCCNCC(N)=O)cc2F)c2cc(C#N)ccc2-c2cc(Cl)cnc21 [1-162, 2-({2-[(4-{4-chloro-13-cyano-8-ethyl-9-oxo-6,8,10-triazatricyclo[9.4.0.0^2,7]pentadeca-1(11),2(7),3,5,12,14-hexaen-10-yl}-3,5-difluorophenyl)amino]ethyl}amino)acetamide] |
| < 0.1 | CC(C)N1C(=O)N(c2c(F)cc(NCCNCCCC(=O)O)cc2F)c2cc(C#N)ccc2-c2cc(F)cnc21 [1-86, 4-{[2-({4-[13-cyano-4-fluoro-9-oxo-8-(propan-2-yl)-6,8,10-triazatricyclo[9.4.0.0^2,7]pentadeca-1(11),2(7),3,5,12,14-hexaen-10-yl]-3,5-difluorophenyl}amino)ethyl]amino}butanoic acid] |
| < 0.1 | CNCCNc1cc(F)c(N2C(=O)N(C)c3ncc(F)cc3-c3c(C)cc(Cl)cc32)c(F)c1 [1-75, 13-chloro-10-(2,6-difluoro-4-{[2-(methylamino)ethyl]amino}phenyl)-4-fluoro-8,15-dimethyl-6,8,10-triazatricyclo[9.4.0.0^2,7]pentadeca-1(11),2(7),3,5,12,14-hexaen-9-one] |
| < 0.1 | CCN1C(=O)N(c2c(F)cc(NCCN[C@H](C)C(=O)O)cc2F)c2cc(C#N)ccc2-c2cc(Cl)cnc21 [1-236, (2R)-2-({2-[(4-{4-chloro-13-cyano-8-ethyl-9-oxo-6,8,10-triazatricyclo[9.4.0.0^2,7]pentadeca-1(11),2(7),3,5,12,14-hexaen-10-yl}-3,5-difluorophenyl)amino]ethyl}amino)propanoic acid] |
| < 0.1 | CCN1C(=O)N(c2c(F)cc(NC[C@H]3COCCN3)cc2F)c2cc(C#N)ccc2-c2cc(Cl)cnc21 [1-147, 4-chloro-10-[2,6-difluoro-4-({[(3S)-morpholin-3-yl]methyl}amino)phenyl]-8-ethyl-9-oxo-6,8,10-triazatricyclo[9.4.0.0^2,7]pentadeca-1(11),2(7),3,5,12,14-hexaene-13-carbonitrile] |
| < 0.1 | CCN1C(=O)N(c2c(F)cc(NCCN(C)CCCC(=O)O)cc2F)c2cc(Cl)ccc2-c2cc(Cl)cnc21 [1-70, 4-({2-[(4-{4,13-dichloro-8-ethyl-9-oxo-6,8,10-triazatricyclo[9.4.0.0^2,7]pentadeca-1(11),2(7),3,5,12,14-hexaen-10-yl}-3,5-difluorophenyl)amino]ethyl}(methyl)amino)butanoic acid] |
| < 0.1 | CCN1C(=O)N(c2c(F)cc(NCCN[C@@H](C)CO)cc2F)c2cc(C#N)ccc2-c2cc(F)cnc21 [1-213, 10-{2,6-difluoro-4-[(2-{[(2S)-1-hydroxypropan-2-yl]amino}ethyl)amino]phenyl}-8-ethyl-4-fluoro-9-oxo-6,8,10-triazatricyclo[9.4.0.0^2,7]pentadeca-1(11),2(7),3,5,12,14-hexaene-13-carbonitrile] |
| 0.1 to 1 | CCN1C(=O)N(c2c(F)cc(NCCN)cc2F)c2cc(Cl)ccc2-c2c1ncc(Cl)c2C [3-8, 10-{4-[(2-aminoethyl)amino]-2,6-difluorophenyl}-4,13-dichloro-8-ethyl-3-methyl-6,8,10-triazatricyclo[9.4.0.0^2,7]pentadeca-1(11),2(7),3,5,12,14-hexaen-9-one] |
| < 0.1 | CCN1C(=O)N(c2ccc(NCCNC)cc2)c2cc(Cl)ccc2-c2cc(Cl)cnc21 [2-3, 4,13-dichloro-8-ethyl-10-(4-{[2-(methylamino)ethyl]amino}phenyl)-6,8,10-triazatricyclo[9.4.0.0^2,7]pentadeca-1(11),2(7),3,5,12,14-hexaen-9-one] |
| < 0.1 | CC(C)N1C(=O)N(c2c(F)cc(NCCNCCO)cc2F)c2cc(C#N)ccc2-c2cc(F)cnc21 [1-85, 10-[2,6-difluoro-4-({2-[(2-hydroxyethyl)amino]ethyl}amino)phenyl]-4-fluoro-9-oxo-8-(propan-2-yl)-6,8,10-triazatricyclo[9.4.0.0^2,7]pentadeca-1(11),2(7),3,5,12,14-hexaene-13-carbonitrile] |
| < 0.1 | CCN1C(=O)N(c2c(F)cc(NCCN[C@H]3C[C@@H](O)C3)cc2F)c2cc(C#N)ccc2-c2cc(F)cnc21 [1-232, 10-{2,6-difluoro-4-[(2-{[(1s,3s)-3-hydroxycyclobutyl]amino}ethyl)amino]phenyl}-8-ethyl-4-fluoro-9-oxo-6,8,10-triazatricyclo[9.4.0.0^2,7]pentadeca-1(11),2(7),3,5,12,14-hexaene-13-carbonitrile] |
| < 0.1 | CCN1C(=O)N(c2c(F)cc(NCCNC)cc2F)c2cc(Cl)ccc2-c2cc(Cl)cnc21 [1-8, 4,13-dichloro-10-(2,6-difluoro-4-{[2-(methylamino)ethyl]amino}phenyl)-8-ethyl-6,8,10-triazatricyclo[9.4.0.0^2,7]pentadeca-1(11),2(7),3,5,12,14-hexaen-9-one] |
| 0.1 to 1 | CCN1C(=O)N(c2c(F)cc(NCCN3CCNC(=O)C3)cc2F)c2cc(C#N)ccc2-c2cc(Cl)cnc21 [1-128, 4-chloro-10-(2,6-difluoro-4-{[2-(3-oxopiperazin-1-yl)ethyl]amino}phenyl)-8-ethyl-9-oxo-6,8,10-triazatricyclo[9.4.0.0^2,7]pentadeca-1(11),2(7),3,5,12,14-hexaene-13-carbonitrile] |
| < 0.1 | CCN1C(=O)N(c2c(F)cc(NCCNCCO)cc2F)c2cc(C#N)cc(F)c2-c2cc(F)cnc21 [1-103, 10-[2,6-difluoro-4-({2-[(2-hydroxyethyl)amino]ethyl}amino)phenyl]-8-ethyl-4,15-difluoro-9-oxo-6,8,10-triazatricyclo[9.4.0.0^2,7]pentadeca-1(11),2(7),3,5,12,14-hexaene-13-carbonitrile] |
| < 0.1 | CC(C)N1C(=O)N(c2c(F)cc(NCCNCCO)cc2F)c2cc(Cl)ccc2-c2cc(F)cnc21 [1-106, 13-chloro-10-[2,6-difluoro-4-({2-[(2-hydroxyethyl)amino]ethyl}amino)phenyl]-4-fluoro-8-(propan-2-yl)-6,8,10-triazatricyclo[9.4.0.0^2,7]pentadeca-1(11),2(7),3,5,12,14-hexaen-9-one] |
| < 0.1 | CCN1C(=O)N(c2c(F)cc(NCCNC)cc2F)c2cc(Cl)ccc2-c2c1ncc(F)c2C [3-7, 13-chloro-10-(2,6-difluoro-4-{[2-(methylamino)ethyl]amino}phenyl)-8-ethyl-4-fluoro-3-methyl-6,8,10-triazatricyclo[9.4.0.0^2,7]pentadeca-1(11),2(7),3,5,12,14-hexaen-9-one] |
| < 0.1 | CCN1C(=O)N(c2ccc(NCCNC)cc2F)c2cc(Cl)ccc2-c2cc(Cl)cnc21 [2-8, 4,13-dichloro-8-ethyl-10-(2-fluoro-4-{[2-(methylamino)ethyl]amino}phenyl)-6,8,10-triazatricyclo[9.4.0.0^2,7]pentadeca-1(11),2(7),3,5,12,14-hexaen-9-one] |

Source: patent US20230159532A1, “PARATHYROID HORMONE (PTH) RECEPTOR ANTAGONISTS AND USES THEREOF” (Crinetics Pharmaceuticals, Inc., priority 2021, published 2023)
